Reference: PMC7724566, “Prospects for Clinical Development of Stat5 Inhibitor IST5-002: High Transcriptomic Specificity in Prostate Cancer and Low Toxicity In Vivo” (Cancers, 2020)

Experiments:
PC xenograft tumors = system: PC xenograft tumors; set-up: method as in PMID 18316550, PMID 23942095, PMID 26362718, PMID 20966544, PMID 20233708; details: cited from earlier work
JAK2 = JAK2 (Homo sapiens, UniProt O60674); experiment: Radiometric filtration binding cell-free kinase assay; type: biochemical; set-up: purchased Reaction Biology (JAK1/2/3, TYK2); Luceome Biotechnologies KinaseSeeker (others); details: percent activity of kinase after exposure to IST5 1 µM
Chain of JAK2 (O60674 whole entry, the tested form may be a part): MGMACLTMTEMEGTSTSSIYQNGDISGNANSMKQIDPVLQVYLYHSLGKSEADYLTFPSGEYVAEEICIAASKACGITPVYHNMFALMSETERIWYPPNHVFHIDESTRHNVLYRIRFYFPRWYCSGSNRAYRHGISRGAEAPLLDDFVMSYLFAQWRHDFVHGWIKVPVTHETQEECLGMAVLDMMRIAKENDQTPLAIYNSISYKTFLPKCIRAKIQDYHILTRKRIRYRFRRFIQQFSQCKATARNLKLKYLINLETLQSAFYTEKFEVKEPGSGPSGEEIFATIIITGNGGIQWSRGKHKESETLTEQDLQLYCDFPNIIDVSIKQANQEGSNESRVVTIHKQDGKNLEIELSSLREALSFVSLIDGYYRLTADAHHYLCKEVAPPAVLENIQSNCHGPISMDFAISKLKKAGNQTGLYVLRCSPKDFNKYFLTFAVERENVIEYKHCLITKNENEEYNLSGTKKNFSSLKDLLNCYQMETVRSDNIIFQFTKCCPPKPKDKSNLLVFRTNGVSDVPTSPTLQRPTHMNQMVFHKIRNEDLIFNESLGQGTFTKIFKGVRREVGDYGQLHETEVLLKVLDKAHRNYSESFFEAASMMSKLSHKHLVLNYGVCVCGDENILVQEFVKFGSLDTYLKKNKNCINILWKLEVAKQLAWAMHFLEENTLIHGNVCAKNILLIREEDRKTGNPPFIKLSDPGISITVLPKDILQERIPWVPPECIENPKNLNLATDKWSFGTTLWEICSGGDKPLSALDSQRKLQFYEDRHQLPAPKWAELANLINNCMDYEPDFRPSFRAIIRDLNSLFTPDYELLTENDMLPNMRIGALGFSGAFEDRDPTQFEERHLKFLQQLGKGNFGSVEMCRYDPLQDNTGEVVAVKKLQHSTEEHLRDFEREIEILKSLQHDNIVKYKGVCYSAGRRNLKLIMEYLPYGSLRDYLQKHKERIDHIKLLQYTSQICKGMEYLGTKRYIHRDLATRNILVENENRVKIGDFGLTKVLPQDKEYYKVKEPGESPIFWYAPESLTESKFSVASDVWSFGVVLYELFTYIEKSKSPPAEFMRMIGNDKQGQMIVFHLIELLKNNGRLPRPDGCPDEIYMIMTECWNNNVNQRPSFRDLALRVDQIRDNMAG
Method: (§1) For Jak1, Jak2, Jak3 and Tyk2, a radiometric filtration binding assay was conducted by Reaction Biologicals (Malvern, PA, USA) (Table 1). This radiometric assay is a cell-free assay which is based on conventional filter-binding assays, directly measuring kinase catalytic activity toward a specific substrate. For evaluation of the activity of the other kinases, the Kinase Seeker Technology was utilized (Luceome Biotechnologies, Tucson, AZ, USA), which is a luminescence-based cell-free assay. In this assay, the reassembly of luciferase fragments is mediated by the interaction of a kinase with an active site-dependent probe. The competitive displacement of the probe by an inhibitor is measured by a change in luminescence signal. Percent activity of each kinase after exposure to IST5 (1 µM) is presented.

JAK3 = target: T1, JAK3 (Homo sapiens, UniProt P52333); experiment: as above; type: biochemical; set-up: purchased Reaction Biology (JAK1/2/3, TYK2); Luceome Biotechnologies KinaseSeeker (others); details: percent activity of kinase after exposure to IST5 1 µM
T1 sequence (P52333 1-1124): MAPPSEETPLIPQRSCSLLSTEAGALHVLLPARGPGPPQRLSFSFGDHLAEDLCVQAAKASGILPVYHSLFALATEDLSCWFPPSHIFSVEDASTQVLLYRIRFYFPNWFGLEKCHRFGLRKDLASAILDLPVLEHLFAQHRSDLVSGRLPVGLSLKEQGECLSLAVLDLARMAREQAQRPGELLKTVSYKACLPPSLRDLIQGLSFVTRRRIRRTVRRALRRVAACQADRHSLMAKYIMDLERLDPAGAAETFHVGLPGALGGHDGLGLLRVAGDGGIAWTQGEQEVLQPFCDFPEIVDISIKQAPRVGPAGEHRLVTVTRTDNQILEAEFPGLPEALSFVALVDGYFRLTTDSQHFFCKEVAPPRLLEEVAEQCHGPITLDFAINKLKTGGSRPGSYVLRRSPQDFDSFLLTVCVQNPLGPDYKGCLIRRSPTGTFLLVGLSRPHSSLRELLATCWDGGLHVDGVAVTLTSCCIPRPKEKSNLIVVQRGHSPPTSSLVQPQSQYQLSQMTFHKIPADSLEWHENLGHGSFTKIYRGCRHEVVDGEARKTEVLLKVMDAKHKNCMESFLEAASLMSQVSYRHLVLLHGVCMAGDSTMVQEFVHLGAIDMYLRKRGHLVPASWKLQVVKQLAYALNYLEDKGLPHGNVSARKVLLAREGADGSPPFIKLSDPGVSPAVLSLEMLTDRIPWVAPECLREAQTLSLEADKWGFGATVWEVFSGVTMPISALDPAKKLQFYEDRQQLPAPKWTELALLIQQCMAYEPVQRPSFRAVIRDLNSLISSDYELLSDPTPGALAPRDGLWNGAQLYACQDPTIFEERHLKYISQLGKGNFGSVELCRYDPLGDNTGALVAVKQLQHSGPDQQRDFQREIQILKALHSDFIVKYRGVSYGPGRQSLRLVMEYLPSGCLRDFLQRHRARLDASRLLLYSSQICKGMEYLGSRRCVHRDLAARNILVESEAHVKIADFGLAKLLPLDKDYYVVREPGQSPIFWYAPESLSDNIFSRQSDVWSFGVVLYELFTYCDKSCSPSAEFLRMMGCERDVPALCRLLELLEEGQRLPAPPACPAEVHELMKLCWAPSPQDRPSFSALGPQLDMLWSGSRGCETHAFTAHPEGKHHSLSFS
Method: as §1

**Q.** For `O=P(O)(O)OCC1OC(n2cnc3c(NCc4ccccc4)ncnc32)C(O)C1O` (stereo not drawn) [IST5], which “growth of PC xenograft tumors in mice in vivo” value (PC xenograft tumors) is on record?
**A.** block growth

**Q.** What about the Activity (JAK2) of the same compound?
**A.** 95.4%

**Q.** And the Activity (JAK3)?
**A.** 100.0%
